From patent US20190054090A1, “COMBINATION OF A BTK INHIBITOR AND A CHECKPOINT INHIBITOR FOR TREATING CANCERS” (Gilead Sciences, Inc., priority 2015, published 2019)

Experiments:
[1] = test system: L1210 cell line (JCRB), mouse lymphocytic leukemia; test: in vivo anti-tumor activity in L1210 syngeneic tumors; settings: Compound A1 54 mg/kg/day in diet (0.037%), 4H2 i.p. 20 mg/kg day 0 then 10 mg/kg every 6 days, n=8
Method: (§1) This example evaluated in vivo anti-tumor activity of a BTK inhibitor (Compound A1) in combination with an anti-PD-1 antibody (4H2) in syngeneic tumors. Similar protocols as described above were used with L1210 cell line (JCRB), mouse lymphocytic leukemia.
(§2) L1210-bearing DBA-2 mice were subcutaneously injected (5×10^5 cells/animal). Mice were randomized into four groups (n=8 per group) for treatment with vehicle (CRF-1), Compound A1, 4H2 (10 mg/kg every 6 days), or Compound A1 and 4H2. Mice were fed diets containing of Compound A1. 4H2 was administered intraperitoneally at 20 mg/kg on day 0 followed by 10 mg/kg every 6 days. The average dose of Compound A1 was 54 mg/kg/day (CRF-1 at 0.037%).

[2] = body weight of A20-bearing BALB/c mice; assay type: in vivo; settings: first study, Compound A1 46 mg/kg/day in diet (0.037%), 4H2 i.p. 20 mg/kg day 0 then 10 mg/kg every 6 days, n=9
Method: (§3) A20-bearing BALB/c mice were subcutaneously injected (5×10^6 cells per animal). Day 6 after cell injection (day 0), mice having the tumor volume of about were 200 mm^3 were randomized into four groups (n=9 per group) for treatment with vehicle (CRF-1), Compound A1, 4H2, or Compound A1 and 4H2. Mice were fed diets containing of Compound A1. 4H2 was administered intraperitoneally at 20 mg/kg on day 0 followed by 10 mg/kg every 6 days; the average dose of Compound A1 was 46 mg/kg/day (CRF-1 at 0.037%) in the first and second studies or 15 mg/kg/day (CRF-1 at 0.012%) in the second study. During the studies, tumor volume (long axis of tumor×(short axis of tumor)^2×0.5), tumor growth inhibition rate (TGI, as compared to tumors of the vehicle control group), temporal changes in tumor volume, body weight, or food intake were determined. The studies were terminated when tumors reached a maximum of 3,000 mm^3.
In the second study, the effects of Compound A1 at 15 mg/kg/day (CRF-1 at 0.012%) and 46 mg/kg/day (CRF-1 at 0.037%) were evaluated. Similar protocols as described above were used. The study (n=12 per group) was terminated at day 17.

[3] = body weight of L1210-bearing DBA-2 mice; assay type: in vivo; settings: Compound A1 54 mg/kg/day in diet (0.037%), 4H2 i.p. 20 mg/kg day 0 then 10 mg/kg every 6 days, n=8
Method: as §1, §2

[4] = test system: A20 cell line (ATCC), mouse B-cell lymphoma; test: in vivo anti-tumor activity in A20 syngeneic tumors; settings: first study, Compound A1 46 mg/kg/day in diet (0.037%), 4H2 i.p. 20 mg/kg day 0 then 10 mg/kg every 6 days, n=9
Method: This example evaluated in vivo anti-tumor activity of a BTK inhibitor Compound A1 in combination with an anti-PD-1 antibody (4H2), (Kitayama Labes Co., Ltd) in syngeneic tumors.
A20 cell line (ATCC), mouse B-cell lymphoma, were maintained in lymphocyte growth medium (LGM): RPMI-1640 supplemented with 10% FBS, 1% penicillin-streptomycin. Fresh 1% (vol) Monothioglycerol was also added to the culture. The cell suspension of 2×10^6 to 4×10^6 cells per dish was cultured at 37° C., 5% CO2. The cells were suspended in PBS (5×10^7 cells/mL).
as §3, with “mm^3. […]” for “mm^3.”

[5] = test system: B-cell lymphoma A20; settings: previously reported, Sagiv-Barfi et al. PNAS 2015; cited from earlier work

With `CC#CC(=O)N1CC[C@@H](n2c(=O)n(-c3ccc(Oc4ccccc4)cc3)c3c(N)ncnc32)C1` [Compound A1, (R)-6-amino-9-(1-(but-2-ynoyl)pyrrolidin-3-yl)-7-(4-phenoxyphenyl)-7H-purin-8(9H)-one] the “average tumor volume (±standard error)” value ([1]; day 0) was 0 (±0) mm^3, the “average tumor volume (±standard error)” value ([1]; day 4) was 71 (±16) mm^3 and the “tumor growth inhibition rate (TGI)” value ([1]; day 4) was 8%. The “average tumor volume (±standard error)” value ([1]; day 7) was 247 (±34) mm^3, the “tumor growth inhibition rate (TGI)” value ([1]; day 7) was 30% and the “average tumor volume (±standard error)” value ([1]; day 10) was 874 (±108) mm^3. For the same molecule, the “tumor growth inhibition rate (TGI)” value ([1]; day 10) was 7%, the “average tumor volume (±standard error)” value ([1]; day 12) was 1851 (±226) mm^3 and the “tumor growth inhibition rate (TGI)” value ([1]; day 12) was −0.7%. For the same molecule, the “average tumor volume (±standard error)” value ([1]; day 14) was 3279 (±321) mm^3, the “tumor growth inhibition rate (TGI)” value ([1]; day 14) was −0.2% and the “average body weight (±standard error)” value ([2]; day 0) was 19 (±0.4) g. For the same molecule, the “average body weight (±standard error)” value ([2]; day 2) was 19 (±0.4) g, the “average body weight (±standard error)” value ([2]; day 6) was 20 (±0.3) g and the “average body weight (±standard error)” value ([2]; day 9) was 20 (±0.3) g. The “average body weight (±standard error)” value ([2]; day 12) was 21 (±0.3) g, the “average body weight (±standard error)” value ([2]; day 15) was 21 (±0.3) g and the “average body weight (±standard error)” value ([2]; day 19) was 22 (±0.4) g. For the same molecule, the “average body weight (±standard error)” value ([3]; day 0) was 15 (±0.4) g, the “average body weight (±standard error)” value ([3]; day 4) was 16 (±0.4) g and the “average body weight (±standard error)” value ([3]; day 7) was 16 (±0.4) g. For the same molecule, the “average body weight (±standard error)” value ([3]; day 10) was 17 (±0.5) g, the “average body weight (±standard error)” value ([3]; day 12) was 18 (±0.4) g and the “average body weight (±standard error)” value ([3]; day 14) was 19 (±0.5) g. The “average tumor volume (±standard error)” value ([4]; day 0) was 168 (±11) mm^3, the “tumor growth inhibition rate (TGI, as compared to tumors of the vehicle control group)” value ([4]; day 0) was 0.8% and the “average tumor volume (±standard error)” value ([4]; day 2) was 248 (±18) mm^3. For the same molecule, the “tumor growth inhibition rate (TGI, as compared to tumors of the vehicle control group)” value ([4]; day 2) was 14%, the “average tumor volume (±standard error)” value ([4]; day 6) was 331 (±32) mm^3 and the “tumor growth inhibition rate (TGI, as compared to tumors of the vehicle control group)” value ([4]; day 6) was 23%. For the same molecule, the “average tumor volume (±standard error)” value ([4]; day 9) was 632 (±61) mm^3, the “tumor growth inhibition rate (TGI, as compared to tumors of the vehicle control group)” value ([4]; day 9) was −12% and the “average tumor volume (±standard error)” value ([4]; day 12) was 805 (±104) mm^3. For the same molecule, the “tumor growth inhibition rate (TGI, as compared to tumors of the vehicle control group)” value ([4]; day 12) was 9%, the “average tumor volume (±standard error)” value ([4]; day 15) was 1408 (±157) mm^3 and the “tumor growth inhibition rate (TGI, as compared to tumors of the vehicle control group)” value ([4]; day 15) was 8%. For the same molecule, the “average tumor volume (±standard error)” value ([4]; day 19) was 2553 (±272) mm^3 and the “tumor growth inhibition rate (TGI, as compared to tumors of the vehicle control group)” value ([4]; day 19) was 10%.
In the case of `C=CC(=O)N1CCC[C@@H](n2nc(-c3ccc(Oc4ccccc4)cc3)c3c(N)ncnc32)C1` [ibrutinib, 1-[(3R)-3-[4-Amino-3-(4-phenoxyphenyl)-1H-pyrazolo[3,4-d]pyrimidin-1-yl]piperidin-1-yl]prop-2-en-1-one], the “sensitivity of B-cell lymphoma A20 to the Btk inhibitor” value [5] is given as “would not be sensitive”.
